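Interpolation was linear, between the two tested concentrations surrounding the appropriate level; five concentrations were tested over 48 hours in 96-well plates. Definition used: TGI = concentration required for complete inhibition of growth.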 Where a SMILES comes first, the peptide text is derived from it. [ ]: non-standard residue; d: D form. Ava = NCCCCC(=O)O; Mpa = O=C(O)CCS
What was measured:
Assay in all cases: inhibition of tumour cell growth, NCI panel, 48 h
DU-145 prostate = tested on: DU-145 prostate
HCT-15 colon = tested on: HCT-15 colon
HS 578T breast = tested on: HS 578T breast
NCI/ADR-RES ovarian = tested on: NCI/ADR-RES ovarian
RPMI-8226 leukemia = tested on: RPMI-8226 leukemia
SF-268 CNS = tested on: SF-268 CNS
SF-539 CNS = tested on: SF-539 CNS
SK-MEL-5 melanoma = tested on: SK-MEL-5 melanoma
SR leukemia = tested on: SR leukemia
TK-10 renal = tested on: TK-10 renal

| Structure (SMILES) | TGI (DU-145 prostate) [µM] | TGI (HCT-15 colon) [µM] | TGI (HS 578T breast) [µM] | TGI (NCI/ADR-RES ovarian) [µM] | TGI (RPMI-8226 leukemia) [µM] | TGI (SF-268 CNS) [µM] | TGI (SF-539 CNS) [µM] | TGI (SK-MEL-5 melanoma) [µM] | TGI (SR leukemia) [µM] | TGI (TK-10 renal) [µM] |
| --- | --- | --- | --- | --- | --- | --- | --- | --- | --- | --- |
| Cc1nc2c(Cl)cc(Cl)cc2c2c1CCO2 | > 100 | > 100 | > 100 | > 100 | > 100 | > 100 | > 100 | > 100 | > 100 | > 100 |
| CCCC(=O)OCC1OC(n2cc(F)c(=O)[nH]c2=O)CC1OC(=O)CCC (stereo not given) | > 2.62 | > 10 | > 10 | > 10 | > 10 | > 10 | 0.281 | 2.39 | > 10 | > 10 |
| COc1c(C(=O)/C(=N/Nc2ccc(C(=O)O)cc2)C(C)=O)c(O)cc2occc12 | > 100 | > 100 | > 100 | > 100 | > 100 | > 100 | > 100 | > 100 | > 100 | > 100 |
| CC(C#N)(NO)C(C)(C#N)NO (stereo not given) | > 100 | > 100 | > 100 | > 100 | > 100 | > 100 | > 100 | > 100 | > 100 | > 100 |
| Cc1ccc(C(=O)Nc2ccc(S(=O)(=O)O)c3cc(S(=O)(=O)O)cc(S(=O)(=O)O)c23)cc1NC(=O)c1cccc(NC(=O)Nc2cccc(C(=O)Nc3cc(C(=O)Nc4ccc(S(=O)(=O)O)c5cc(S(=O)(=O)O)cc(S(=O)(=O)O)c45)ccc3C)c2)c1 | > 100 | > 100 | > 100 | > 100 | > 100 | > 100 | > 100 | > 100 | > 100 | > 89.7 |
| Cc1cccc2c(=O)c3cccc([C@H](C)C(=O)O)c3oc12 | > 100 | > 100 | > 100 | > 100 | > 100 | > 100 | > 100 | > 100 | > 100 | > 100 |
| CCN(CC)Cc1cc(N=Nc2c(O)ccc3c(N=Nc4ccc(O)c(CN(CC)CC)c4)c(O)ccc23)ccc1O | 9.55 | 4.7 | > 38.7 | 33 | 19 | 33.8 | 9.2 | 7.42 | 8.53 | 18.8 |
| O=c1cc(NNc2ccccc2)[nH]c(=O)[nH]1 | > 100 | 30 | > 100 | 67.9 | 59.9 | 99.6 | > 100 | > 100 | 84.6 | > 100 |
| Cc1cc2ncn(CC(=O)O)c2cc1C | > 100 | > 100 | > 100 | > 100 | > 100 | > 100 | > 100 | > 100 | > 100 | > 100 |
| O=C(CCCc1cccc2[nH]c3c(c12)CN(Cc1ccccc1)CC3)c1ccc(F)cc1 | > 100 | > 100 | > 100 | > 100 | > 95.1 | > 100 | > 100 | 45.8 | > 100 | > 100 |
| COc1cc2ncnc(NS(=O)(=O)c3cc4ccccc4s3)c2cc1OC | > 100 | > 100 | > 100 | > 100 | > 100 | > 100 | > 100 | > 100 | > 100 | > 100 |
| Nc1cc(C2CCCc3c2[nH]c2ccccc32)ccc1O (stereo not given) | > 100 | > 100 | > 100 | > 100 | 54.9 | > 100 | > 100 | > 100 | > 100 | > 100 |
| O=[N+]([O-])c1ccc2c(c1)nc1n2C(c2c(F)cccc2F)SC1 (stereo not given) | > 100 | > 100 | > 100 | > 100 | > 100 | > 100 | > 100 | > 100 | > 100 | > 100 |
| COc1cc2c(cc1OC)C(CCN)=NCC2 | 32.9 | 38.9 | 59.9 | > 69 | 29.9 | 36.3 | 16.6 | 35.6 | 23.8 | 22.8 |
| COC(=O)[C@@]12CSC[C@]1(C(=O)OC)N[C@@H](c1ccccc1O)C2 | > 100 | > 100 | > 100 | > 100 | > 100 | > 100 | > 100 | > 100 | > 100 | > 100 |
| O=C(Nc1ccccc1C(=O)NCc1ccccc1)/C(=C/c1ccccc1O)NC(=O)c1ccccc1 | > 100 | > 100 | > 100 | > 100 | > 100 | > 100 | > 100 | > 100 | > 100 | > 100 |
| COc1cc(C[C@@]2(C)[C@@H]3CCC[C@H](CO)[C@@]3(C)CC[C@@H]2C)c(Cl)c(OC)c1 | 30 | 34.1 | 47.5 | 31.3 | 76.2 | 30.8 | 29.4 | 31.8 | 48.5 | 35.1 |
| CC(NC(=O)CCS)C(=O)NC(C)C(=O)NC(Cc1c[nH]c2ccccc12)C(=O)NC(Cc1c[nH]cn1)C(=O)NC(CO)C(=O)NC(Cc1c[nH]c2ccccc12)C(=O)NCCCCC(=O)NC(C)C(=O)NC(CCC(N)=O)C(=O)NC(CCCCN)C(=O)NC(C)C(=O)NC(CCCNC(=N)N)C(=O)NC(CCCCN)C(N)=O (stereo not given) ([Mpa]AAWHSW[Ava]AQKARK-NH2; configuration not given here) | > 100 | > 100 | > 100 | > 100 | > 100 | > 100 | > 100 | > 100 | > 100 | > 100 |
| COc1ccc(-c2c(C#N)c(N)[nH]c(=S)c2C#N)cc1 | > 100 | > 100 | 66.6 | > 100 | 74.2 | > 100 | > 100 | > 100 | > 100 | > 100 |
| CCO/N=C\c1ccc2oc(-c3ccccc3)cc(=O)c2c1 | 13.3 | 12.4 | 42.8 | 0.436 | 9.42 | 24.2 | 2.86 | 5.54 | 1.99 | 34 |
| CS(=O)(=O)OCCN(CCOS(C)(=O)=O)c1ccc(C=Nc2ccc(-c3csc(Cc4ccccc4)n3)cc2)c(Cl)c1 | > 86.5 | > 87.8 | 76.7 | > 70 | > 100 | > 100 | > 59.6 | 40.2 | 74.3 | > 100 |

From PubChem BioAssay (NCI)
